# Reference: patent US11679158B2, “Biodegradable lipids for the delivery of active agents” (ALNYLAM PHARMACEUTICALS, INC., priority 2011, dated 2023)
# How the values were obtained:
# [1] = HPLC retention time of cationic lipid in lipid nanoparticles relative to cholesterol; assay type: physicochemical; conditions: HPLC retention time of lipid in LNP (AD-1661 payload) relative to cholesterol; in min (unit assumed)
# Protocol: Furthermore, the HPLC retention time for each biodegradable cationic lipid was measured in lipid nanoparticles prepared from them. The lipid nanoparticles were prepared as described in Example 35 using AD-1661 as the payload. The retention times are reported in the table below relative to the retention time for cholesterol.
# The HPLC buffer used was a mixture of two solutions (Solution #1 and Solution #2). • Solution #1: 80% methanol/20% 10 mM NH4HCO3 • Solution #2: 80% methanol/20% isopropanol
# [2] = Lipid nanoparticle size by dynamic laser light scattering before and after overnight dialysis; assay type: physicochemical; conditions: intensity weighted diameter, LNP with AD-1661; for LNPs Size (nm) change: size after dialysis: after overnight dialysis; for LNPs Size (nm) change: size before dialysis: before overnight dialysis
# Protocol: The size of the lipid nanoparticles was measured before and after undergoing dialysis overnight. In general, greater changes in lipid nanoparticle size are indicative of lesser stability.
# Dynamic laser light scattering was used to determine the lipid nanoparticle size (expressed as the intensity weighted diameter) with a Zetasizer (Malvern Instruments, Inc. of Westborough, Mass.). All measurements were made at 532 nm wavelength at the scattering angle of 173° using normal resolution mode as the analysis model.
Structure (SMILES),t(lipid) − t(chol) [1],LNPs Size (nm) change: size after dialysis [2],LNPs Size (nm) change: size before dialysis [2]
CC(C)CCC(COC(=O)CCCCCCCCCC(CCCCCCCCCC(=O)OCC(CCC(C)C)C(C)C)OC(=O)CCCN(C)C)C(C)C (stereo not drawn),1.751,60 nm,59 nm
CC(C)CCC(CCOC(=O)CCCCCCCCCC(CCCCCCCCCC(=O)OCCC(CCC(C)C)C(C)C)OC(=O)CCCN(C)C)C(C)C (stereo not drawn),2.106,,
CCCCCC(CCCCC)CCOC(=O)CCCCCCCCCC(CCCCCCCCCC(=O)OCCC(CCCCC)CCCCC)OC(=O)CCCN(C)C,3.178,,
CCCCCC(CCCCC)CCOC(=O)CCCCCCCC(CCCCCCCC(=O)OCCC(CCCCC)CCCCC)OC(=O)CCCN(C)C,2.365,56 -> 56 nm,56 -> 56 nm
CN(C)CCCC(=O)OC(CCCCCCCC/C=C\CCCCCCCC(=O)OCC(C)(C)C)CCCCCCCC/C=C\CCCCCCCC(=O)OCC(C)(C)C,2.707,,

# The next lines start with the values.
t(lipid) − t(chol) [1],LNPs Size (nm) change: size after dialysis [2],LNPs Size (nm) change: size before dialysis [2],Structure (SMILES)
2.219,67 nm,68 nm,CCCCCCCCCC/C=C\COC(=O)CCCCCCCC(CCCCCCCC(=O)OC/C=C\CCCCCCCCCC)OC(=O)CCCN(C)C
0.848,77 nm,73 nm,CCCCCC/C=C\COC(=O)C(C)CCCCCCC(CCCCCCC(C)C(=O)OC/C=C\CCCCCC)OC(=O)CCCN(C)C (stereo not drawn)
1.44,67 nm,60 nm,CCCCCCCC/C=C\COC(=O)CCCCCCCC(CCCCCCCC(=O)OC/C=C\CCCCCCCC)OC(=O)CCCN(C)C
